Laboratory results: patent US20230086703A1, “N-(4-(5-chloropyridin-3-yl)phenyl)-2-(2-(cyclopropanesulfonamido)pyrimidin-4-yl) butanamide derivatives and related compounds as human CTPS1 inhibitors for the treatment of proliferative diseases” (Step Pharma S.A.S., priority 2019, published 2023)

Biological target: T1, human CTPS1 (Homo sapiens, UniProt P17812)
T1 construct: FLAG (with GG linker); His8 (with GG linker); purchased Proteros biostructures GmbH
T1 sequence (P17812 1-591): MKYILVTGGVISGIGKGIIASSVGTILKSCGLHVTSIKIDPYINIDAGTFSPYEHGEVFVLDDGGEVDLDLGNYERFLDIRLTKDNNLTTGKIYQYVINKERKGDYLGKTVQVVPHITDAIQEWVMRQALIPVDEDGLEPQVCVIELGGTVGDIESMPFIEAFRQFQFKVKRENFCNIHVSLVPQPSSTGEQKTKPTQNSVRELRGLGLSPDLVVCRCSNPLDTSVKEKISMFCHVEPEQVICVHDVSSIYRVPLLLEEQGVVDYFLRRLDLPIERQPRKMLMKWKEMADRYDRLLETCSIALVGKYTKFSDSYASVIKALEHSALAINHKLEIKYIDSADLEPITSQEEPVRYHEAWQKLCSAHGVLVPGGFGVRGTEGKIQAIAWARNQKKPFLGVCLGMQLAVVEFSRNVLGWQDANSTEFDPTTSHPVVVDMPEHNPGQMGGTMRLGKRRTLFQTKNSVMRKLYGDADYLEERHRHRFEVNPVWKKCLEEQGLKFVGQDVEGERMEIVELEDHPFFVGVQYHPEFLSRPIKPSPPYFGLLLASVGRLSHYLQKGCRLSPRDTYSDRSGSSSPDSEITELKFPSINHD
Assay: RapidFire/MS-based enzyme selectivity assay (human CTPS1 versus CTPS2), CTPS1 isoform
Type: biochemical
In short: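 Full-length C-terminal FLAG-His-tagged CTPS1 (1-591) was preincubated 10 min at 25 °C with compound in HEPES pH 8.0 buffer with MgCl2, KCl, DTT and Tween-20. Reactions were started with a 2× mix of ATP 0.3 mM, UTP 0.2 mM, GTP 0.07 mM and L-glutamine 0.1 mM, and run in the linear phase at 25 °C. IC50 comes from the RapidFire-MS ratio of CTP to 13C9-15N3-CTP.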

[1] = Table 16, human CTPS1 over human CTPS2, RapidFire/MS IC50 values
[2] = RapidFire/MS IC50 values of CTPS1 and CTPS2, Table 15

Structure (SMILES)	Selectivity (fold selectivity between CTPS1 and CTPS2) [1]	Selectivity (fold selectivity between CTPS1 and CTPS2) [2]	further results
Cc1cc(-c2cncc(C(F)(F)F)n2)ccc1C(=O)NC1(c2csc(NS(=O)(=O)C3CC3)n2)CC1 [R83, N-(1-(2-(cyclopropanesulfon-amido)thiazol-4-yl)cyclopropyl)-2-methyl-4-(6-(trifluoromethyl)pyrazin-2-yl)benzamide]	+++ (>60 fold (+++))		
CCOc1cncc(-c2ccc(NC(=O)C(C)(C)c3ccnc(NS(=O)(=O)C4CC4)n3)c(C#N)c2)n1 [P34, N-(2-cyano-4-(6-ethoxypyrazin-2-yl)phenyl)-2-(2-(cyclopropanesulfonamido)pyrimidin-4-yl)-2-methylpropanamide]		+ (2-30 fold (+))	
CCOc1cncc(-c2ccc(C(=O)NC(C)(C)c3csc(NS(=O)(=O)C4CC4)n3)c(OC)c2)n1 [R7, N-(2-(2-(cyclopropanesulfonamido)thiazol-4-yl)propan-2-yl)-4-(6-ethoxypyrazin-2-yl)-2-methoxybenzamide]	++ (>30-60 fold (++))		
CCOc1cncc(-c2ccc(NC(=O)C(CC)c3cccc(NS(=O)(=O)C4CC4)n3)nc2)n1 (stereo not shown) [P188, 2-(6-(cyclopropanesulfonamido)pyridin-2-yl)-N-(5-(6-ethoxypyrazin-2-yl)pyridin-2-yl)butanamide]		++ (>30-60 fold (++))	
COc1cc(-c2cncc(C(F)(F)F)n2)ccc1C(=O)NC(C)(C)c1csc(NS(=O)(=O)C2CC2)n1 [R48, N-(2-(2-(cyclopropanesulfonamido)thiazol-4-yl)propan-2-yl)-2-methoxy-4-(6-(trifluoromethyl)pyrazin-2-yl)benzamide]	++ (>30-60 fold (++))		
CCOc1cncc(-c2ccc(NC(=O)C(C)(C)c3ccnc(NS(=O)(=O)C4CC4)n3)nc2)n1 [P31, 2-(2-(cyclopropanesulfonamido)pyrimidin-4-yl)-N-(5-(6-ethoxypyrazin-2-yl)pyridin-2-yl)-2-methylpropanamide]		+++ (>60 fold (+++))	
CCOc1cncc(-c2ccc(NC(=O)C(F)(CC)c3ccnc(NS(C)(=O)=O)n3)nc2)n1 (stereo not shown) [P151, N-(5-(6-ethoxypyrazin-2-yl)pyridin-2-yl)-2-fluoro-2-(2-(methylsulfonamido)pyrimidin-4-yl)butanamide]		+++ (>60 fold (+++))	
CC(C)Oc1cncc(-c2ccc(C(=O)NC(C)(C)c3csc(NS(=O)(=O)C4CC4)n3)c(F)c2)n1 [R43, N-(2-(2-(cyclopropanesulfonamido)thiazol-4-yl)propan-2-yl)-2-fluoro-4-(6-isopropoxypyrazin-2-yl)benzamide]	++ (>30-60 fold (++))		
CC(C)Oc1cncc(-c2ccc(NC(=O)C(C)(C)c3ccnc(NS(=O)(=O)C4CC4)n3)nc2)n1 [P9, 2-(2-(cyclopropanesulfonamido)pyrimidin-4-yl)-N-(5-(6-isopropoxypyrazin-2-yl)pyridin-2-yl)-2-methylpropanamide]		+++ (>60 fold (+++))	
CCOc1cncc(-c2ccc(C(=O)NC(C)(C)c3nc(NS(=O)(=O)C4CC4)sc3Cl)c(F)c2)n1 [R75, N-(2-(5-chloro-2-(cycloprop-anesulfonamido)thiazol-4-yl)propan-2-yl)-4-(6-ethoxypyrazin-2-yl)-2-fluorobenzamide]	+++ (>60 fold (+++))		
CCOc1cncc(-c2ccc(NC(=O)C(CCOC)c3ccnc(NS(=O)(=O)C4CC4)n3)cc2)n1 (stereo not shown) [P110, 2-(2-(cyclopropanesulfonamido)pyrimidin-4-yl)-N-(4-(9-ethoxypyrazin-2-yl)phenyl)-4-methoxypbutanamide]		++ (>30-60 fold (++))	
CCOc1cncc(-c2ccc(NC(=O)C(OC)c3ccnc(NS(=O)(=O)C4CC4)n3)cc2)n1 (stereo not shown) [P164, 2-(2-(cyclopropanesulfonamido)pyrimidin-4-yl)-N-(4-(6-ethoxypyrazin-2-yl)phenyl)-2-methoxyacetamide]		+ (2-30 fold (+))	
CCOc1cncc(-c2ccc(NC(=O)C3(c4ccnc(NS(=O)(=O)C5CC5)n4)CCOCC3)c(F)c2)n1 [P143, 4-(2-(cyclopropanesulfonamido)pyrimidin-4-yl)-N-(4-(6-ethoxypyrazin-2-yl)-2-fluorophenyl)tetrahydro-2H-pyran-4-carboxamide]		+++ (>60 fold (+++))	
CCC(C(=O)Nc1ccc(-c2cncc(OC(C)C)n2)cn1)c1ccnc(NS(=O)(=O)C2CC2)n1 (stereo not shown) [P89, 2-(2-(cyclopropanesulfonamido)pyrimidin-4-yl)-N-(5-(6-isopropoxypyrazin-2-yl)pyridin-2-yl)butanamide]		+++ (>60 fold (+++))	
CCOc1cncc(-c2ccc(NC(=O)C3(c4ccnc(NS(=O)(=O)C5CC5)n4)CCC(O)CC3)nc2)n1 (single isomer, unassigned) [P228, 1-(2-(cyclopropanesulfonamido)pyrimidin-4-yl)-N-(5-(6-ethoxypyrazin-2-yl)pyridin-2-yl)-4-hydroxycyclohexanecarboxamide]			Selectivity (fold selectivity between CTPS1 and CTPS2) (RapidFire/MS IC50 values of CTPS1 and CTPS2, Table 17): +++ (>60 fold (+++))
CCOc1cncc(-c2ccc(NC(=O)C(CCOC)c3ccnc(NS(=O)(=O)C4CC4)n3)nc2)n1 (stereo not shown) [P145, 2-(2-(cyclopropanesulfonamido)pyrimidin-4-yl)-N-(5-(6-ethoxypyrazin-2-yl)pyridin-2-yl)-4-methoxybutanamide]		+++ (>60 fold (+++))	
CCOc1cncc(-c2ccc(NC(=O)C(F)(CC)c3ccnc(NS(=O)(=O)C4CC4)n3)nc2)n1 (single isomer, unassigned) [P113, 2-(2-(Cyclopropanesulfonamido)pyrimidin-4-yl)-N-(5-(6-ethoxypyrazin-2-yl)pyridin-2-yl)-2-fluorobutanamide]		+ (2-30 fold (+))	
CCOc1cncc(-c2ccc(C(=O)NC(CC)c3csc(NS(=O)(=O)C4CC4)n3)c(F)c2)n1 (single isomer, unassigned) [R70, N-(1-(2-(cyclopropanesulfon-amido)thiazol-4-yl)propyl)-4-(6-ethoxypyrazin-2-yl)-2-fluorobenzamide]	+++ (>60 fold (+++))		
CCOc1cncc(-c2ccc(NC(=O)C(C)(C)c3nc(NS(=O)(=O)C4CC4)ncc3C)cc2)n1 [P70, 2-(2-(cyclopropanesulfonamido)-5-methylpyrimidin-4-yl)-N-(4-(6-ethoxypyrazin-2-yl)phenyl)-2-methylpropanamide]		+ (2-30 fold (+))	
CCOc1cncc(-c2ccc(C(=O)NC(C)(C)c3csc(NS(=O)(=O)C4CC4)n3)nc2)n1 [R26, N-(2-(2-(cyclopropanesulfon-amido)thiazol-4-yl)propan-2-yl)-5-(6-ethoxypyrazin-2-yl)picolinamide]	+++ (>60 fold (+++))		
O=C(Cc1ccnc(NS(=O)(=O)C2CC2)n1)Nc1ccc(-c2cccnc2)cc1 [P16, 2-(2-(cyclopropanesulfonamido)pyrimidin-4-yl)-N-(4-(pyridin-3-yl)phenyl)acetamide]		++ (>30-60 fold (++))	
CCOc1cncc(-c2ccc(C(=O)NC(CC)c3csc(NS(=O)(=O)C4CC4)n3)c(F)c2)n1 (single isomer, unassigned) [R71, N-(1-(2-(cyclopropanesulfon-amido)thiazol-4-yl)propyl)-4-(6-ethoxypyrazin-2-yl)-2-fluorobenzamide]	+++ (>60 fold (+++))		
CCC(C(=O)Nc1ccc(-c2cncc(Cl)c2)cc1)c1ccnc(NS(=O)(=O)C2CC2)n1 (stereo not shown) [P1, N-(4-(5-Chloropyridin-3-yl)phenyl)-2-(2-(cyclopropanesulfonamido)pyrimidin-4-yl)butanamide]		+ (2-30 fold (+))	
CCC(C(=O)Nc1ccc(-c2cncc(C(F)(F)F)n2)cn1)c1ccnc(NS(=O)(=O)C2CC2)n1 (stereo not shown) [P87, 2-(2-(cyclopropanesulfonamido)pyrimidin-4-yl)-N-(5-(6-(trifluoromethyl)pyrazin-2-yl)pyridin-2-yl)butanamide]		++ (>30-60 fold (++))	
CCOc1cncc(-c2ccc(C(=O)NC3(c4csc(NS(=O)(=O)C5CC5)n4)CC3)nc2)n1 [R80, N-(1-(2-(cyclopropanesulfon-amido)thiazol-4-yl)cyclo-propyl)-5-(6-ethoxypyrazin-2-yl)picolinamide]	+++ (>60 fold (+++))		
